Laboratory results published in patent publication US10174016B2 (BAYER AKTIENGESELLSCHAFT, priority 2014, dated 2019).
pIC50: −log10 of the molar value. Where two headings read alike, the source gives them in different places.

Columns and labels:
[1] = molecular target: human P2X3 receptor (Homo sapiens (Human), UniProt P56373); assay: Intracellular calcium measurement (FLIPR, Fluo-4) of antagonist activity at human P2X3 receptors; type: cell-based; conditions: read-out: hP2X3 IC50
Summary of the method: (§1)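 Cells expressing human P2X3 or P2X2/3, loaded with Fluo-4, preincubated 30 min at 37° C. with compound (1% DMSO final), then challenged with α,β-Me-ATP at its EC80. Peak FLIPR fluorescence over 90 sec gave % response; IC50, maximal inhibition and Hill slope from triplicates.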

[2] = molecular target: human P2X2/3 receptor (Homo sapiens (Human), UniProt P56373+Q9UBL9); assay: Intracellular calcium measurement (FLIPR, Fluo-4) of antagonist activity at human P2X2/3 receptors; type: cell-based; conditions: human P2X2/3, FLIPR calcium assay, agonist α,β-Me-ATP; read-out: hP2X2/3 IC50
Summary of the method: as §1

[3] = human P2X3, FLIPR calcium assay, agonist α,β-Me-ATP

human P2X3 receptor, sequence (P56373 whole entry): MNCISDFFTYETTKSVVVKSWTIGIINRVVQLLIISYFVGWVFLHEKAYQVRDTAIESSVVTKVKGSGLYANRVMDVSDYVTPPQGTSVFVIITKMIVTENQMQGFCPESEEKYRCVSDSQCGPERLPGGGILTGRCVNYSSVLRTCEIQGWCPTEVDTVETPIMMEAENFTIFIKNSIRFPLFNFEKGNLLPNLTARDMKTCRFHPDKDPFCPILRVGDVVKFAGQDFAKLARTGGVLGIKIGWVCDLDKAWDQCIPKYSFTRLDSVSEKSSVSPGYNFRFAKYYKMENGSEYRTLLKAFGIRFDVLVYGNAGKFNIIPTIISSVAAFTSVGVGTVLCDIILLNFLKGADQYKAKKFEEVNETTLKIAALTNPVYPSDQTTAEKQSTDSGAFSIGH
human P2X2/3 receptor, sequence (P56373 whole entry): as above
human P2X2/3 receptor, sequence (Q9UBL9 whole entry): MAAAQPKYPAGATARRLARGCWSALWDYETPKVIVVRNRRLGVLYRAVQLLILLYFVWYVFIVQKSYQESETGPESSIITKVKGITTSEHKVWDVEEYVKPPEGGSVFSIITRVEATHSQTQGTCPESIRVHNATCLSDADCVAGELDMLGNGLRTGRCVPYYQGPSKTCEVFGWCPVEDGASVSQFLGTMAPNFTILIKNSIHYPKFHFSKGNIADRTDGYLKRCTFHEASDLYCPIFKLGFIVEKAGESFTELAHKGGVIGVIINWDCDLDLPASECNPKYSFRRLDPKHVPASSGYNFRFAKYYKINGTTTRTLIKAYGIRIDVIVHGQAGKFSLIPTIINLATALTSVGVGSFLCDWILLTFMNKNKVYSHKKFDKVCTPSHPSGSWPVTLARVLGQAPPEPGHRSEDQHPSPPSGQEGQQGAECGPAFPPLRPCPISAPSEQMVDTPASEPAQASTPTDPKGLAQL

| Structure (SMILES) | pIC50 [1] | pIC50 [2] | pIC50 [1, 3] |
| --- | --- | --- | --- |
| Cc1ccc([C@@H](C)NC(=O)c2cc(OC[C@H]3CCOC3)cc(-c3ncc(Cl)s3)c2)nn1 [Example 316, 3-(5-chloro-1,3-thiazol-2-yl)-N-[(1R)-1-(6-methylpyridazin-3-yl)ethyl]-5-[(3S)-tetrahydrofuran-3-ylmethoxy]benzamide] | 7.68 | 6.60 |  |
| Cc1ccc([C@@H](C)NC(=O)c2cc(O[C@@H]3CCOC3)cc(-c3ncc(Cl)s3)c2)nn1 [Example 317, 3-(5-chloro-1,3-thiazol-2-yl)-N-[(1R)-1-(6-methylpyridazin-3-yl)ethyl]-5-[(3R)-tetrahydrofuran-3-yloxy]benzamide] |  | 6.02 | 7.35 |
| C[C@@H](NC(=O)c1cc(O[C@@H]2CCOC2)cc(-c2ncc(Cl)s2)c1)c1ccc(C(F)(F)F)nn1 [Example 318, 3-(5-chloro-1,3-thiazol-2-yl)-5-[(3R)-tetrahydrofuran-3-yloxy]-N-{(1R)-1-[6-(trifluoromethyl)pyridazin-3-yl]ethyl}benzamide] |  | 6.32 | 7.49 |
| C[C@@H](NC(=O)c1cc(O[C@H]2CCOC2)cc(-c2ncc(Cl)s2)c1)c1ccc(C(F)(F)F)nn1 [Example 320, 3-(5-chloro-1,3-thiazol-2-yl)-5-[(3S)-tetrahydrofuran-3-yloxy]-N-{(1R)-1-[6-(trifluoromethyl)pyridazin-3-yl]ethyl}benzamide] |  | 6.20 | 7.48 |
| Cc1ccc([C@@H](C)NC(=O)c2cc(O[C@H]3CCOC3)cc(-c3ncc(Cl)s3)c2)nn1 [Example 322, 3-(5-chloro-1,3-thiazol-2-yl)-N-[(1R)-1-(6-methylpyridazin-3-yl)ethyl]-5-[(3S)-tetrahydrofuran-3-yloxy]benzamide] |  | 6.30 | 7.31 |
| C[C@@H](NC(=O)c1cc(OC[C@H]2CCOC2)cc(-c2ncc(Cl)s2)c1)c1cnc(C(F)(F)F)nc1 [Example 323, 3-(5-chloro-1,3-thiazol-2-yl)-5-[(3S)-tetrahydrofuran-3-ylmethoxy]-N-{(1R)-1-[2-(trifluoromethyl)pyrimidin-5-yl]ethyl}benzamide] |  | 6.39 | 7.60 |
| Cc1ccc([C@@H](C)NC(=O)c2cc(OC3CCOCC3)cc(-c3ncc(Cl)s3)c2)nn1 [Example 325, 3-(5-chloro-1,3-thiazol-2-yl)-N-[(1R)-1-(6-methylpyridazin-3-yl)ethyl]-5-(tetrahydro-2H-pyran-4-yloxy)benzamide] |  | 6.63 | 7.59 |
| C[C@@H](NC(=O)c1cc(OC2CCOCC2)cc(-c2ncc(Cl)s2)c1)c1ccc(C(F)(F)F)nn1 [Example 326, 3-(5-chloro-1,3-thiazol-2-yl)-5-(tetrahydro-2H-pyran-4-yloxy)-N-{(1R)-1-[6-(trifluoromethyl)pyridazin-3-yl]ethyl}benzamide] |  | 6.42 | 7.68 |
| Cc1cnc(-c2cc(OCC3(C)COC3)cc(C(=O)N[C@H](C)c3cnc(C(F)(F)F)nc3)c2)s1 [Example 327, 3-[(3-methyloxetan-3-yl)methoxy]-5-(5-methyl-1,3-thiazol-2-yl)-N-{(1R)-1-[2-(trifluoromethyl)pyrimidin-5-yl]ethyl}benzamide] |  | 6.62 | 8.00 |
| Cc1cnc(-c2cc(OCC(C)(C)O)cc(C(=O)N[C@H](C)c3cnc(C(F)(F)F)nc3)c2)s1 [Example 328, 3-(2-hydroxy-2-methylpropoxy)-5-(5-methyl-1,3-thiazol-2-yl)-N-{(1R)-1-[2-(trifluoromethyl)pyrimidin-5-yl]ethyl}benzamide] | 7.92 | 6.56 |  |
| Cc1cnc(-c2cc(OC3C4COCC3CN(C(C)C)C4)cc(C(=O)N[C@H](C)c3cnc(C(F)(F)F)nc3)c2)s1 (stereo partly drawn) [Example 344, 3-[(7-isopropyl-3-oxa-7-azabicyclo[3.3.1]non-9-yl)oxy]-5-(5-methyl-1,3-thiazol-2-yl)-N-{(1R)-1-[2-(trifluoromethyl)pyrimidin-5-yl]ethyl}benzamide] |  | 6.01 | 7.47 |
| COC(=O)N1CC2COCC(C1)C2Oc1cc(C(=O)N[C@H](C)c2cnc(C(F)(F)F)nc2)cc(-c2ncc(C)s2)c1 (stereo partly drawn) [Example 345, methyl 9-[3-(5-methyl-1,3-thiazol-2-yl)-5-({(1R)-1-[2-(trifluoromethyl)pyrimidin-5-yl]ethyl}carbamoyl)phenoxy]-3-oxa-7-azabicycle[3.3.1]nonane-7-carboxylate] |  | 7.00 | 8.15 |
| Cc1cnc(-c2cc(OC[C@H]3CNCCO3)cc(C(=O)N[C@H](C)c3cnc(C(F)(F)F)nc3)c2)s1 [Example 347, 3-(5-Methyl-1,3-thiazol-2-yl)-5-[(2R)-morpholin-2-ylmethoxy]-N-{(1R)-1-[2-(trifluoromethyl)pyrimidin-5-yl]ethyl}benzamide] |  | 5.82 | 8.05 |
| Cc1cnc(-c2cc(OC[C@@H]3CNCCO3)cc(C(=O)N[C@H](C)c3cnc(C(F)(F)F)nc3)c2)s1 [Example 350, 3-(5-Methyl-1,3-thiazol-2-yl)-5-[(2S)-morpholin-2-ylmethoxy]-N-{(1R)-1-[2-(trifluoromethyl)pyrimidin-5-yl]ethyl}benzamide] |  | 5.93 | 7.85 |
| Cc1cnc(-c2cc(OC[C@@H]3CN(C)CCO3)cc(C(=O)N[C@H](C)c3cnc(C(F)(F)F)nc3)c2)s1 [Example 351, 3-{[(2S)-4-methylmorpholin-2-yl]methoxy}-5-(5-methyl-1,3-thiazol-2-yl)-N-{(1R)-1-[2-(trifluoromethyl)pyrimidin-5-yl]ethyl}benzamide] |  | 6.16 | 7.80 |
| Cc1cnc(-c2cc(OCC3CNCCO3)cc(C(=O)N[C@H](C)c3cnc(C(F)(F)F)nc3)c2)s1 (stereo partly drawn) [Example 352, 3-(5-Methyl-1,3-thiazol-2-yl)-5-[morpholin-2-ylmethoxy]-N-{(1R)-1-[2-(trifluoromethyl)pyrimidin-5-yl]ethyl}benzamide] |  | 5.94 | 7.74 |
| Cc1cnc(-c2cc(OCC3CN(C)CCO3)cc(C(=O)N[C@H](C)c3cnc(C(F)(F)F)nc3)c2)s1 (stereo partly drawn) [Example 353, 3-{[4-methylmorpholin-2-yl]methoxy}-5-(5-methyl-1,3-thiazol-2-yl)-N-{(1R)-1-[2-(trifluoromethyl)pyrimidin-5-yl]ethyl}benzamide] |  | 6.37 | 8.15 |
| Cc1cnc(-c2cc(OC[C@@]3(F)CCCNC3)cc(C(=O)N[C@H](C)c3cnc(C(F)(F)F)nc3)c2)s1 [Example 354] |  | 5.99 | 7.60 |
| Cc1cnc(-c2cc(OCC3(F)CNC3)cc(C(=O)N[C@H](C)c3cnc(C(F)(F)F)nc3)c2)s1 [Example 358, 3-[(3-fluoroazetidin-3-yl)methoxy]-5-(5-methyl-1,3-thiazol-2-yl)-N-{(1R)-1-[2-(trifluoromethyl)pyrimidin-5-yl]ethyl}benzamide] |  | 5.84 | 7.24 |
| Cc1cnc(-c2cc(OCC3CNCCC3(F)F)cc(C(=O)N[C@H](C)c3cnc(C(F)(F)F)nc3)c2)s1 (stereo partly drawn) [Example 359, 3-{[4,4-difluoropiperidin-3-yl]methoxy}-5-(5-methyl-1,3-thiazol-2-yl)-N-{(1R)-1-[2-(trifluoromethyl)pyrimidin-5-yl]ethyl}benzamide] |  | 6.70 | 8.22 |
| Cc1cnc(-c2cc(OC[C@H]3COCCN3C)cc(C(=O)N[C@H](C)c3cnc(C(F)(F)F)nc3)c2)s1 [Example 360] |  | 6.34 | 8.00 |
| Cc1cnc(-c2cc(OC[C@@H]3COCCN3C)cc(C(=O)N[C@H](C)c3ccc(C(F)(F)F)nc3)c2)s1 [Example 361, 3-{[(3S)-4-methylmorpholin-3-yl]methoxy}-5-(5-methyl-1,3-thiazol-2-yl)-N-{(1R)-1-[6-(trifluoromethyl)pyridin-3-yl]ethyl}benzamide] |  | 5.90 | 7.85 |
| Cc1cnc(-c2cc(OC[C@@H]3COCCN3C)cc(C(=O)N[C@H](C)c3cnc(C(F)(F)F)nc3)c2)s1 [Example 362] |  | 5.99 | 8.10 |
| Cc1cnc(-c2cc(OC[C@H]3COCCN3C)cc(C(=O)N[C@H](C)c3ccc(C(F)(F)F)nc3)c2)s1 [Example 363, 3-{[(3R)-4-methylmorpholin-3-yl]methoxy}-5-(5-methyl-1,3-thiazol-2-yl)-N-{(1R)-1-[6-(trifluoromethyl)pyridin-3-yl]ethyl}benzamide] | 7.92 | 6.14 |  |
| Cc1cnc(-c2cc(OCC3CC(F)CN3C)cc(C(=O)N[C@H](C)c3cnc(C(F)(F)F)nc3)c2)s1 (stereo partly drawn) [Example 364, 3-{[4-fluoro-1-methylpyrrolidin-2-yl]methoxy}-5-(5-methyl-1,3-thiazol-2-yl)-N-{(1R)-1-[2-(trifluoromethyl)pyrimidin-5-yl]ethyl}benzamide] |  | 6.03 | 7.80 |
| Cc1cnc(-c2cc(OCC3CC(F)CN3C)cc(C(=O)N[C@H](C)c3ccc(C(F)(F)F)nc3)c2)s1 (stereo partly drawn) [Example 365, 3-{[4-fluoro-1-methylpyrrolidin-2-yl]methoxy}-5-(5-methyl-1,3-thiazol-2-yl)-N-{(1R)-1-[6-(trifluoromethyl)pyridin-3-yl]ethyl}benzamide] |  | 5.98 | 7.68 |
| Cc1cnc(-c2cc(OC[C@H]3CN(C)CCO3)cc(C(=O)N[C@H](C)c3ccc(C(F)(F)F)nc3)c2)s1 [Example 366, 3-{[(2R)-4-methylmorpholin-2-yl]methoxyl}-5-(5-methyl-1,3-thiazol-2-yl)-N-{(1R)-1-[6-(trifluoromethyl)pyridin-3-yl]ethyl}benzamide] |  | 6.01 | 7.74 |
| C[C@@H](NC(=O)c1cc(OC[C@H]2CN(C)CCO2)cc(-c2ncc(Cl)s2)c1)c1cnc(C(F)(F)F)nc1 [Example 367, 3-(5-chloro-1,3-thiazol-2-yl)-5-{[(2R)-4-methylmorpholin-2-yl]methoxy}-N-{(1R)-1-[2-(trifluoromethyl)pyrimidin-5-yl]ethyl}benzamide] |  | 6.30 | 7.89 |
